This note sets out measurements from patent publication US12122785B2, “Substituted pyridines, pyridazines, pyrimidines, and 1,2,4-triazines as TYK2 inhibitors” (Sudo Biosciences Limited, priority 2021, dated 2024).

Assay type in all cases: cell-based
For test [1], the system named is TYK2 pseudokinase (JH2); IL-23-stimulated HEK-Blue IL-23 cells. The test is described as follows: HEK-Blue IL-23 reporter assay (STAT3-inducible SEAP) for profiling TYK2 pseudokinase (JH2) inhibition. The following applies: 10 ng/mL human recombinant IL-23, SEAP readout, read-out: IL23 (TYK2 inhibitory activity, IC50). Here is the method:
(§1) Example B-1: HEK-Blue™ IL-23 and IFNα/β Reporter Assays for Profiling TYK2 Pseudokinase (JH2) Inhibition
(§2) HEK-Blue™ IL-23 and IFNα/β cells with a stably-integrated cytokine receptor and STAT3 or STAT1 express STAT-inducible secreted embryonic alkaline phosphatase (SEAP) reporter gene upon cytokine stimulation. These cells are plated in DMEM (Gibco) containing 10% heat-inactivated FBS (Gibco) and 100 U/mL PenStrep (Gibco) at 37° C. under 5% CO2 conditions for 20-22 hours. The cells are then pretreated with serially diluted test compounds for 60 min prior to stimulation with either 10 ng/mL human recombinant IL-23 (Miltenyl Biotech) or 1 ng/mL human recombinant IFNα (InvivoGen) for 22-24 hours for IL-23 or 16-18 h for IFNα. SEAP induction is measured using the QUANTI Blue™ Solution (InvivoGen) according to the manufacturer's instructions.
For orientation: Reporter assays use an easily measured gene product as a stand-in for the process of interest.

In test [2] the test system is IL-2-stimulated HEK-Blue IL-2 reporter cells. The test is described as follows: HEK-Blue IL-2 reporter assay (STAT5-inducible SEAP) for determining selectivity. The following applies: 4 ng/mL human recombinant IL-2, 24 hours. Here is the method: (§3) Example B-3: HEK-Blue™ IL-2 and IFNγ Reporter Assays for Determining Selectivity
(§4) HEK-Blue™ IL-2 and IFNγ reporter cells with a stably-integrated cytokine receptor and STAT5 or STAT1 express STAT-inducible secreted embryonic alkaline phosphatase (SEAP) reporter gene upon cytokine stimulation. These cells were plated in DMEM (Gibco) containing 10% heat-inactivated FBS (Gibco) and 100 U/mL PenStrep (Gibco) at 37° C. under 5% CO2 conditions for 20-22 hours. The cells were then pretreated with serially diluted test compounds for 60 min prior to stimulation with either 4 ng/mL human recombinant IL-2 (Miltenyl Biotech) or 50 ng/mL human recombinant IFNγ (InvivoGen) for 24 hours. SEAP induction was measured using the QUANTI-Blue™ Solution (InvivoGen) according to the manufacturer's instructions.

The test system of test [3] is TYK2 pseudokinase (JH2); IFNα-stimulated HEK-Blue IFNα/β cells. The test is described as follows: HEK-Blue IFNα/β reporter assay (STAT1-inducible SEAP) for profiling TYK2 pseudokinase (JH2) inhibition. Conditions: 1 ng/mL human recombinant IFNα, SEAP readout, read-out: IFNα (TYK2 inhibitory activity, IC50). Here is the method: as §1, §2
Test [4] deals with IFNγ-stimulated HEK-Blue IFNγ reporter cells. As to the kind of experiment: HEK-Blue IFNγ reporter assay (STAT1-inducible SEAP) for determining selectivity. The following applies: 50 ng/mL human recombinant IFNγ, 24 hours, read-out: IFN-γ SEAP selectivity assay IC50. Here is the method:
as §3, §4

Turning to `[2H]C([2H])([2H])NC(=O)c1nnc(NC(=O)N(C)C)cc1Nc1nccc2c1N(C)C([2H])([2H])c1cn(C)nc1-2` [Compound 75, 4-((2,5-dimethyl-4,5-dihydro-2H-pyrazolo[4,3-c][1,7]naphthyridin-6-yl-4,4-d2)amino)-6-(3,3-dimethylureido)-N-(methyl-d3)pyridazine-3-carboxamide], the 50% inhibitory concentration (IC50) in test [1] is < 30 nM; in test [2], > 1000 nM; in test [3], 30 to 300 nM; in test [4] it was > 1000 nM.

Regarding `[2H]C([2H])([2H])NC(=O)c1cnc(NC(=O)C2CC2)cc1Nc1nccc2c1N(C)C([2H])([2H])c1cn(C)nc1-2` [Compound 77, 6-(cyclopropanecarboxamido)-4-((2,5-dimethyl-4,5-dihydro-2H-pyrazolo[4,3-c][1,7]naphthyridin-6-yl-4,4-d2)amino)-N-(methyl-d3)nicotinamide], the IC50 in test [1] is < 30 nM; in test [2], > 1000 nM; in test [3], < 30 nM; in test [4], 300 to 1000 nM.

For the compound `[2H]C([2H])([2H])NC(=O)c1cnc(NC(=O)C2CC2)cc1Nc1cccc2c1N(C)[C@H](C)c1cn(C)nc1-2` (single isomer, unassigned) [Compound 31], the IC50 in test [1] was < 30 nM; in test [3] it was 30 to 300 nM.

Take `[2H]C([2H])([2H])NC(=O)c1cnc(NC(=O)C2CC2)cc1Nc1cccc2c1N(C)C([2H])([2H])c1cc(C)nn1-2` [Compound 57, 6-(cyclopropanecarboxamido)-4-((2,5-dimethyl-4,5-dihydropyrazolo[1,5-a]quinoxalin-6-yl-4,4-d2)amino)-N-(methyl-d3)nicotinamide]: the IC50 was < 30 nM in test [1], > 1000 nM in test [2], < 30 nM in test [3] and 30 to 300 nM in test [4].

For the compound `[2H]C([2H])([2H])NC(=O)c1nnc(NC(=O)C2CC2)cc1Nc1cccc2c1N(C)C([2H])([2H])c1ccnn1-2` [Compound 58, 6-(cyclopropanecarboxamido)-N-(methyl-d3)-4-((5-methyl-4,5-dihydropyrazolo[1,5-a]quinoxalin-6-yl-4,4-d2)amino)pyridazine-3-carboxamide], the IC50 is < 30 nM in test [1], > 1000 nM in test [2], < 30 nM in test [3] and 300 to 1000 nM in test [4].

Turning to `[2H]C([2H])([2H])NC(=O)c1nnc(NC(=O)C2CC2)cc1Nc1nccc2c1N(C)C([2H])([2H])c1cc(C)nn1-2` [Compound 73, 6-(cyclopropanecarboxamido)-4-((2,5-dimethyl-4,5-dihydropyrazolo[1,5-a]pyrido[3,4-e]pyrazin-6-yl-4,4-d2)amino)-N-(methyl-d3)pyridazine-3-carboxamide], the 50% inhibitory concentration (IC50) was < 30 nM in test [1], > 1000 nM in test [2], < 30 nM in test [3] and 30 to 300 nM in test [4].

Consider `CNC(=O)c1nnc(Nc2ccc(F)cn2)cc1Nc1cccc2c1OCc1cn(C3COC3)nc1-2` [Compound 3, 6-[(5-fluoropyridin-2-yl)amino]-N-methyl-4-{[2-(oxetan-3-yl)-2H,4H-chromeno[4,3-c]pyrazol-6-yl]amino}pyridazine-3-carboxamide], for which the concentration for half-maximal inhibition (IC50) in test [1] was 30 to 300 nM; in test [2] it was 300 to 1000 nM; in test [3], > 1000 nM; in test [4], 300 to 1000 nM.

As for `[2H]C([2H])([2H])NC(=O)c1cnc(NC(=O)C2CC2)cc1Nc1nccc2c1N(C)Cc1cc(C)nn1-2` [Compound 71, 6-(cyclopropanecarboxamido)-4-((2,5-dimethyl-4,5-dihydropyrazolo[1,5-a]pyrido[3,4-e]pyrazin-6-yl)amino)-N-(methyl-d3)nicotinamide], the IC50 is < 30 nM in test [1], > 1000 nM in test [2], < 30 nM in test [3] and > 1000 nM in test [4].

With `[2H]C([2H])([2H])NC(=O)c1nnc(NC(=O)C2CC2)cc1Nc1cccc2c1N(C)Cc1cc(C(F)(F)F)nn1-2` [Compound 54, 6-(cyclopropanecarboxamido)-N-(methyl-d3)-4-((5-methyl-2-(trifluoromethyl)-4,5-dihydropyrazolo[1,5-a]quinoxalin-6-yl)amino)pyridazine-3-carboxamide], the IC50 lay in the range of 30 to 300 nM in test [1] and 300 to 1000 nM in test [3].

Take `CNC(=O)c1nnc(Nc2ccc(F)cn2)cc1Nc1cccc2c1OC(C)c1cn(C)nc1-2` (stereo not drawn) [Compound 11, 4-((2,4-dimethyl-2,4-dihydrochromeno[4,3-c]pyrazol-6-yl)amino)-6-((5-fluoropyridin-2-yl)amino)-N-methylpyridazine-3-carboxamide]: the half-inhibitory concentration (IC50) in test [1] is 30 to 300 nM; in test [3], > 1000 nM.

With `[2H]C([2H])([2H])NC(=O)c1nnc(N(C)C(=O)C2CC2)cc1Nc1nccc2c1N(C)C([2H])([2H])c1cn(C)nc1-2` [Compound 62, 4-((2,5-dimethyl-4,5-dihydro-2H-pyrazolo[4,3-c][1,7]naphthyridin-6-yl-4,4-d2)amino)-N-(methyl-d3)-6-(N-methylcyclopropanecarboxamido)pyridazine-3-carboxamide], the 50% inhibitory concentration (IC50) is < 30 nM in test [1] and 30 to 300 nM in test [3].

For `[2H]C([2H])([2H])NC(=O)c1nnc(NC(=O)NC)cc1Nc1nccc2c1N(C)[C@H](C)c1cn(C)nc1-2` (single isomer, unassigned) [Compound 78], the half-maximal inhibitory concentration (IC50) in test [1] fell in the range of 30 to 300 nM; in test [3] it was 300 to 1000 nM.

Regarding `CNC(=O)c1nnc(NC(=O)C2CC2)cc1Nc1cccc2c1OC(C)c1cn(C)nc1-2` (stereo not drawn) [Compound 10, 6-(cyclopropanecarboxamido)-4-((2,4-dimethyl-2,4-dihydrochromeno[4,3-c]pyrazol-6-yl)amino)-N-methylpyridazine-3-carboxamide], the IC50 in test [1] was 30 to 300 nM; in test [3] it was > 1000 nM.

Regarding `[2H]C([2H])([2H])NC(=O)c1cnc(NC(=O)C2CC2)cc1Nc1cccc2c1N(C)Cc1cc(C(F)(F)F)nn1-2` [Compound 55, 6-(cyclopropanecarboxamido)-N-(methyl-d3)-4-((5-methyl-2-(trifluoromethyl)-4,5-dihydropyrazolo[1,5-a]quinoxalin-6-yl)amino)nicotinamide], the results for the half-maximal inhibitory concentration (IC50) in test [1] and in test [3] were 30 to 300 nM and 300 to 1000 nM, respectively.

Consider `[2H]C([2H])([2H])NC(=O)c1cnc(NC(=O)C2CC2)cc1Nc1cccc2c1N(C)Cc1cn(C(C)C)nc1-2` [Compound 37, 6-(cyclopropanecarboxamido)-4-((2-isopropyl-5-methyl-4,5-dihydro-2H-pyrazolo[4,3-c]quinolin-6-yl)amino)-N-(methyl-d3)nicotinamide], for which the figures for the IC50 in test [1] and in test [3] were < 30 nM and 30 to 300 nM, respectively.

On to `[2H]C([2H])([2H])NC(=O)c1nnc(NC(=O)C2CC2)cc1Nc1nccc2c1N(C)[C@H](C)c1cc(C)nn1-2` [Compound 81, (R)-6-(cyclopropanecarboxamido)-N-(methyl-d3)-4-((2,4,5-trimethyl-4,5-dihydropyrazolo[1,5-a]pyrido[3,4-e]pyrazin-6-yl)amino)pyridazine-3-carboxamide], for which the IC50 in test [1] and in test [3] was < 30 nM throughout.

For `[2H]C([2H])([2H])NC(=O)c1nnc(NC(=O)C2CC2)cc1Nc1cccc2c1N(C)Cc1cn(C(C)C)nc1-2` [Compound 91, 6-(cyclopropanecarboxamido)-4-((2-isopropyl-5-methyl-4,5-dihydro-2H-pyrazolo[4,3-c]quinolin-6-yl)amino)-N-(methyl-d3)pyridazine-3-carboxamide], the IC50 was < 30 nM in test [1] and 30 to 300 nM in test [3].

Regarding `[2H]C([2H])([2H])NC(=O)c1cnc(NC(=O)C2COC2)cc1Nc1cccc2c1N(C)Cc1cn(C)nc1-2` [Compound 24, 4-((2,5-dimethyl-4,5-dihydro-2H-pyrazolo[4,3-c]quinolin-6-yl)amino)-N-(methyl-d3)-6-(oxetane-3-carboxamido)nicotinamide], the IC50 in test [1] and in test [3] was 30 to 300 nM throughout.

With `[2H]C([2H])([2H])NC(=O)c1nnc(NC(=O)C2CC2)cc1Nc1nccc2c1N(C)[C@@H](C)c1cn(C)nc1-2` (single isomer, unassigned) [Compound 69], the IC50 in test [1] and in test [3] was 30 to 300 nM in each case.

As for `[2H]C([2H])([2H])NC(=O)c1nnc(NC(=O)C2CC2)cc1Nc1nccc2c1N(C)C([2H])([2H])c1cn(C)nc1-2` [Compound 72, 6-(cyclopropanecarboxamido)-4-((2,5-dimethyl-4,5-dihydro-2H-pyrazolo[4,3-c][1,7]naphthyridin-6-yl-4,4-d2)amino)-N-(methyl-d3)pyridazine-3-carboxamide], the half-inhibitory concentration (IC50) was < 30 nM in test [1] and 300 to 1000 nM in test [2].

Broadly, the IC50 is the concentration that gives 50% inhibition.
